Source: patent US11667652B2, “MCL1 inhibitors” (Gilead Sciences, Inc., priority 2019, dated 2023)
Read-outs that look alike come from different tables or passages of the source.

Legend:
MCL1/Bim = MCL1/Bim (Homo sapiens (Human), UniProt Q07820); assay: MCL1/Bim Binding AlphaLISA Assay; conditions: recombinant human 6xHis-MCL1 (171-327), biotinylated Bim peptide (51-76)
Procedure, shortened: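 AlphaLISA with 0.0625 nM human 6×His-MCL1 (171-327) and 0.0625 nM biotinylated Bim (51-76) peptide in 20 mM Hepes pH 7.5, 150 mM NaCl, 0.002% Brij 35, 1 mM DTT, 0.01% BSA. Compound preincubated with MCL1 1 h, Bim added 2 h, then acceptor and donor beads 1 h each; % inhibition versus DMSO and no-protein/peptide controls.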

SKBR3 cells = assay: SKBR3 Cell Viability Assay; format: cell-based; conditions: CellTiter Glo, read-out: MCL1 CV SKBR3 EC50
Procedure, shortened: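 SKBR3 cells (6,000/well, McCoy's 5A + 10% FBS) were added onto pre-spotted serial compound dilutions and incubated 72 h at 37° C, 5% CO2. Viability was read by CellTiter-Glo luminescence, with % inhibition normalised to DMSO (negative) and 10 μM puromycin (positive).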

[1] = Homo sapiens, SK-BR-3, 72 hours

Chain of MCL1/Bim (Q07820 171-327): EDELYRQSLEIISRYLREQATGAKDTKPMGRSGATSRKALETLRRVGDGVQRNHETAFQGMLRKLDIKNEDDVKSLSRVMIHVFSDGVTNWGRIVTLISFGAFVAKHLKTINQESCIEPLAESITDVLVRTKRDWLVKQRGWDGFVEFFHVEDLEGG

| IC50 (MCL1/Bim) | EC50 (SKBR3 cells; [1]) | EC50 (SKBR3 cells; 72 hours) | Structure (SMILES) |
| --- | --- | --- | --- |
| 0.08 nM | 87.7 nM | – | CO[C@H]1/C=C/C[C@H](C)C[S@@](=O)(NC(=O)c2cc(C(=O)N3CCOCC3)n(C)c2)=NC(=O)c2ccc3c(c2)N(C[C@@H]2CC[C@H]21)C[C@@]1(CCCc2cc(Cl)ccc21)CO3 [Example 207] |
| 0.03 nM | – | 136 nM | COc1nn(C)cc1C(=O)N[S@@]1(=O)=NC(=O)c2ccc3c(n2)N(C[C@@H]2CC[C@H]2[C@@H](OC)/C=C\C[C@H](C)C1)C[C@@]1(CCCc2cc(Cl)ccc21)CO3 [Example 192] |
| 0.056 nM | 422 nM | – | COc1nn(C)cc1C(=O)N[S@@]1(=O)=NC(=O)c2ccc3c(c2)N(C[C@@H]2CC[C@H]2[C@H]2OC(=O)C[C@@H]2CC[C@H](C)C1)C[C@@]1(CCCc2cc(Cl)ccc21)CC3 [Example 151] |
| 0.06 nM | 24.9 nM | – | CO[C@H]1/C=C/C[C@H](C)[C@@H](C)[S@@](=O)(NC(=O)c2cnn(C)c2)=NC(=O)c2ccc3c(c2)N(C[C@@H]2CC[C@H]21)C[C@]1(CO3)SCCc2cc(Cl)ccc21 [Example 180] |
| 0.05 nM | 109 nM | – | COCC#Cc1nn(C)cc1C(=O)N[S@@]1(=O)=NC(=O)c2ccc3c(c2)N(C[C@@H]2CC[C@H]2[C@@H](OC)/C=C/C[C@H](C)C1)C[C@@]1(CCCc2cc(Cl)ccc21)CO3 [Example 210] |
| 0.378 nM | 287 nM | – | COc1nn(C)cc1C(=O)N[S@@]1(=O)=NC(=O)c2ccc3c(c2)N(C[C@@H]2CC[C@H]2[C@@H](OC)/C=C/[C@@H]2OCC[C@@H]1[C@H]2C)C[C@@]1(CCCc2cc(Cl)ccc21)CC3 [Example 149] |
| 0.04 nM | 47.8 nM | – | CO[C@H]1/C=C/C[C@H](C)C[S@@](=O)(NC(=O)NC2CC2)=NC(=O)c2ccc3c(n2)N(C[C@@H]2CC[C@H]21)C[C@@]1(CCCc2cc(Cl)ccc21)CO3 [Example 187] |
| 0.426 nM | – | 1720 nM | COc1nn(C)cc1C(=O)N[S@@]1(=O)=NC(=O)c2ccc3c(c2)N(C[C@@H]2CC[C@H]2[C@@H](OC)C[C@@H]2[C@H](OC[C@@H]2C)[C@H](C)C1)C[C@@]1(CCCc2ccccc21)CO3 [Example 148] |
| 0.05 nM | 23.8 nM | – | COC1CC(C(=O)N[S@@]2(=O)=NC(=O)c3ccc4c(n3)N(C[C@@H]3CC[C@H]3[C@@H](OC)/C=C/C[C@H](C)C2)C[C@@]2(CCCc3cc(Cl)ccc32)CO4)C1 (stereo partly drawn) [Example 195] |
| 0.155 nM | 113 nM | – | CCn1cc(C(=O)N[S@@]2(=O)=NC(=O)c3ccc4c(c3)N(C[C@@H]3CC[C@H]3[C@@H](OC)/C=C/C[C@H](C)[C@H]2C)C[C@]2(CO4)C[C@@H]3C[C@@H]3c3cc(Cl)ccc32)cn1 [Example 170] |
| 0.02 nM | – | 36.6 nM | COc1nn(C)cc1C(=O)N[S@@]1(=O)=NC(=O)c2ccc3c(n2)N(C[C@@H]2CC[C@H]2[C@@H](OC)/C=C/C[C@H](C)C1)C[C@@]1(CCCc2cc(Cl)ccc21)CO3 [Example 191] |
| 0.24 nM | 454 nM | – | CO[C@H]1/C=C/CCC[S@@](=O)(NC(=O)NC2CC2)=NC(=O)c2ccc3c(c2)N(C[C@@H]2CC[C@H]21)C[C@]1(CO3)SCCc2cc(Cl)ccc21 [Example 183] |
| 0.366 nM | – | 229 nM | COc1nn(C)cc1C(=O)N[S@@]1(=O)=NC(=O)c2ccc3c(c2)N(C[C@@H]2CC[C@H]2[C@@H]2/C=C/[C@@H](OCCCC(=O)O2)[C@H](C)C1)C[C@@]1(CCCc2cc(Cl)ccc21)CO3 [Example 157] |
| 0.07 nM | 26.6 nM | – | CO[C@H]1/C=C/C[C@H](C)C[S@@](=O)(NC(=O)c2cc3n(c2)CCOC3)=NC(=O)c2ccc3c(n2)N(C[C@@H]2CC[C@H]21)C[C@@]1(CCCc2cc(Cl)ccc21)CO3 [Example 186] |
| 0.27 nM | 57 nM | – | CO[C@H]1/C=C/C[C@H](C)[C@@H](C)[S@@](=O)(NC(=O)c2cc3n(c2)CCOC3)=NC(=O)c2ccc3c(c2)N(C[C@@H]2CC[C@H]21)C[C@]1(CO3)SCCc2cc(Cl)ccc21 [Example 181] |
| 0.171 nM | 190 nM | – | CO[C@H]1/C=C/C[C@H](C)C[S@@](=O)(NC(=O)NC2CC2)=NC(=O)c2ccc3c(c2)N(C[C@@H]2CC[C@H]21)C[C@]1(CO3)C[C@@H]2C[C@@H]2c2cc(Cl)ccc21 [Example 166] |

More lines, now with the values behind:

| Structure (SMILES) | IC50 (MCL1/Bim) | EC50 (SKBR3 cells; [1]) | EC50 (SKBR3 cells; 72 hours) |
| --- | --- | --- | --- |
| COCCOCCOCCO[C@H]1/C=C/[C@H](OC)[C@@H]2CC[C@H]2CN2C[C@@]3(CCCc4cc(Cl)ccc43)COc3ccc(cc32)C(=O)N=[S@](=O)(NC(=O)c2cn(C)nc2OC)C[C@H]1C [Example 76] | 0.048 nM | 24.1 nM | – |
| COc1nn(C)cc1C(=O)N[S@@]1(=O)=NC(=O)c2ccc3c(c2)N(C[C@@H]2CC[C@H]2[C@@H](OC)/C=C/[C@H](Oc2ccccn2)[C@H](C)C1)C[C@@]1(CCCc2cc(Cl)ccc21)CO3 [Example 77] | 0.905 nM | 477 nM | – |
| COc1nn(C)cc1C(=O)N[S@@]1(=O)=NC(=O)c2ccc3c(c2)N(C[C@@H]2CC[C@H]2[C@@H](OCCN2CC(N(C)C)C2)/C=C/C[C@H](C)C1)C[C@@]1(CCCc2cc(Cl)ccc21)CO3 [Example 58] | 0.098 nM | – | 38.3 nM |
| CO[C@H]1/C=C/C[C@H](C)C[S@@](=O)(Nc2cnc(C#N)cn2)=NC(=O)c2ccc3c(c2)N(C[C@@H]2CC[C@H]21)C[C@@]1(CCCc2cc(Cl)ccc21)CO3 [Example 5] | 0.584 nM | 4180 nM | – |
| COc1nn(C)cc1C(=O)N[S@@]1(=O)=NC(=O)c2ccc3c(c2)N(C[C@@H]2CC[C@H]2/C=C/CC[C@H](C)C1)C[C@@]1(CCCc2cc(Cl)ccc21)CO3 (mixture of isomers) [Example 129] | 0.142 nM | – | 1210 nM |
| COc1nn(C)cc1C(=O)N[S@@]1(=O)=NC(=O)c2ccc3c(c2)N(C[C@@H]2CC[C@H]2[C@@](CN2CCN(C4COC4)CC2)(OC)/C=C/C[C@H](C)C1)C[C@@]1(CCCc2cc(Cl)ccc21)CO3 [Example 116] | 0.102 nM | 13.4 nM | – |
| COc1nn(C)cc1C(=O)N[S@@]1(=O)=NC(=O)c2ccc3c(c2)N(C[C@@H]2CC[C@H]2[C@@](O)(CC(=O)N2CCOCC2)/C=C/C[C@H](C)C1)C[C@@]1(CCCc2cc(Cl)ccc21)CO3 [Example 98] | 0.031 nM | – | 73.3 nM |
| COc1nn(C)cc1C(=O)N[S@@]1(=O)=NC(=O)c2ccc3c(c2)N(C[C@@H]2CC[C@H]2[C@@H](OC)/C=C/[C@H](OCCN2CC4(COC4)C2)[C@H](C)C1)C[C@@]1(CCCc2cc(Cl)ccc21)CO3 [Example 86] | 0.088 nM | 64.6 nM | – |
| COc1nn(C)cc1C(=O)N[S@@]1(=O)=NC(=O)c2ccc3c(c2)N(C[C@@H]2CC[C@H]2[C@@H](OC)C[C@@H]2[C@H](OC[C@H]2C)[C@H](C)C1)C[C@@]1(CCCc2ccccc21)CO3 [Example 147] | 0.394 nM | – | 532 nM |
| COCC#CCO[C@H]1/C=C/[C@H](OC)[C@@H]2CC[C@H]2CN2C[C@@]3(CCCc4cc(Cl)ccc43)COc3ccc(cc32)C(=O)N=[S@](=O)(NC(=O)c2cn(C)nc2OC)C[C@H]1C [Example 75] | 0.217 nM | 171 nM | – |
| COc1nn(C)cc1C(=O)N[S@@]1(=O)=NC(=O)c2ccc3c(c2)N(C[C@@H]2CC[C@H]2[C@H](OC)[C@@H](OC)/C=C\[C@H](C)C1)C[C@@]1(CCCc2cc(Cl)ccc21)CO3 [Example 132] | 0.833 nM | 1020 nM | – |
| COc1ccc2c(N[S@@]3(=O)=NC(=O)c4ccc5c(c4)N(C[C@@H]4CC[C@H]4[C@@H](OC)/C=C/C[C@H](C)C3)C[C@@]3(CCCc4cc(Cl)ccc43)CO5)ncnc2c1 [Example 21] | 0.156 nM | 882 nM | – |
| COc1nn(C)cc1C(=O)N[S@@]1(=O)=NC(=O)c2ccc3c(c2)N(C[C@@H]2CC[C@H]2C(O)(C#CCN(C)C)/C=C/C[C@H](C)C1)C[C@@]1(CCCc2cc(Cl)ccc21)CO3 (stereo partly drawn) [Example 110] | 0.045 nM | – | 27.6 nM |
| COc1nn(C)cc1C(=O)N[S@@]1(=O)=NC(=O)c2ccc3c(c2)N(C[C@@H]2CC[C@H]2[C@@H](OC)/C=C/[C@H](NC(C)=O)[C@H](C)C1)C[C@@]1(CCCc2cc(Cl)ccc21)CO3 [Example 118] | 0.634 nM | – | 2520 nM |
| CO[C@H]1/C=C/[C@H](OC)CC[S@@](=O)(Nc2ncnc3nn(C)cc23)=NC(=O)c2ccc3c(c2)N(C[C@@H]2CC[C@H]21)C[C@@]1(CCCc2cc(Cl)ccc21)CO3 [Example 71] | 0.894 nM | – | 192 nM |
| COc1nn(C)cc1C(=O)N[S@@]1(=O)=NC(=O)c2ccc3c(c2)N(C[C@@H]2CC[C@H]2[C@@H](OC)C[C@H]2CC(=O)O[C@@H]2[C@H](C)C1)C[C@@]1(CCCc2cc(Cl)ccc21)CO3 [Example 140] | 0.067 nM | 138 nM | – |
| COc1nn(C)cc1C(=O)N[S@@]1(=O)=NC(=O)c2ccc3c(c2)N(C[C@@H]2CC[C@H]2[C@](O)(CC(=O)N2CCN(C)CC2)/C=C/C[C@H](C)C1)C[C@@]1(CCCc2cc(Cl)ccc21)CO3 [Example 101] | 0.026 nM | – | 27 nM |
| COc1nn(C)cc1C(=O)N[S@@]1(=O)=NC(=O)c2ccc3c(c2)N(C[C@@H]2CC[C@H]2[C@@](O)(CC(=O)N2CC(N4CCOCC4)C2)/C=C/C[C@H](C)C1)C[C@@]1(CCCc2cc(Cl)ccc21)CO3 [Example 106] | 0.038 nM | – | 133 nM |
| COc1nn(C)cc1C(=O)N[S@@]1(=O)=NC(=O)c2ccc3c(c2)N(C[C@@H]2CC[C@H]2[C@@H](OC)/C=C/[C@H](OCc2ccncc2)[C@H](C)C1)C[C@@]1(CCCc2cc(Cl)ccc21)CO3 [Example 84] | 0.099 nM | 90 nM | – |
| COc1nn(C)cc1C(=O)N[S@@]1(=O)=NC(=O)c2ccc3c(c2)N(C[C@@H]2CC[C@H]2[C@@H](OC)/C=C/[C@H](OCCN2CC(N(C)C)C2)[C@H](C)C1)C[C@@]1(CCCc2cc(Cl)ccc21)CO3 [Example 80] | 0.253 nM | 27.5 nM | – |
